The values below come from patent publication US20050272068A1, “UCH-L1 expression and cancer therapy” (The Brigham and Women's Hospital, Inc., priority 2004, published 2005).

The test system of series [1] is SH-SY5Y cells. As to the kind of experiment: alpha-synuclein toxicity in SH-SY5Y cells infected with alpha-synuclein-expressing adenovirus (Trypan blue viable cell counting, MTT assay). In kind it is cell-based. To be noted: SH-SY5Y cells overexpressing alpha-synuclein via adenoviral vector, compounds for 48 hours, vs DMSO. How it is done:
(§1) Viral Infection: Viral infection and MTT assay in SH—SY5Y cells: The viruses were amplified and purified according to the published procedure. SH—SY5Y cells were grown on 100 mm petri-dishes and induced with 100 nM RA for 3-5 days before the virus infection with M.I.O at 75. Viruses were diluted with DPBS to desired M.I.O. After four hours of incubation, 10 ml growth medium was added. On the second day, cells were splitted into 96-well plates and treated with compounds for next 48 hours. The growth medium in each well was replaced with growth medium with 5 ug/ml MTT. Medium was removed after three hours incubation, and 200 ul isopropyl (0.04N HCl) was added into each well. The signal was read at 570 nm.
Viable cell counting: At stated time poins, SH—SY5Y cells were trypsinized with 100 ul trypsin-EDTA for 1 minute and neutralized with 400 ul growth medium. Cell suspension was made up by mixing 0.2 ml of cells in growth medium, 0.3 ml of HBSS and 0.5 ml of 0.4% Trypan Blue solution. Viable cell numbers were counted by standard cell counting chamber.
Since α-synuclein neurotoxicity is dose-dependent, it follows that accumulation of α-synuclein, caused by UCH-L1 farnesylation, should promote its toxicity. […] These cells express high endogenous levels of UCH-L1. […] The unit of y-axis is 10^5/ml. (F) Cell viability was assessed by the amount of metabolic activity using MTT assay. […]
A general note: Tetrazolium dyes change colour on reduction, which living cells bring about.

For series [2], the system named is α-synuclein. In words: Amount of alpha-synuclein in infected SH-SY5Y cells by Western blotting. It is filed as cell-based. To be noted: SH-SY5Y cells infected with alpha-synuclein-expressing adenovirus, normalized against actin. The protocol: as §1
Western Blotting: Following transfer of SDS gels onto NC membrane, all membranes were blocked with 5% non-fat milk in TBST (50 mM Tris-HCl pH7.4, 150 mM NaCl, 0.1% Tween 20), and incubated with primary antibody overnight with 1% BSA in TBST, washed three times with TBST, and incubated with horseradish peroxidase-conjugated secondary antibody for 1 hour (Promega). Bound antibodies were detected using enhanced chemiluminascence (NEM).
Since α-synuclein neurotoxicity is dose-dependent, it follows that accumulation of α-synuclein, caused by UCH-L1 farnesylation, should promote its toxicity. […] (F) Cell viability was assessed by the amount of metabolic activity using MTT assay. […]
On the technique in general: In western blotting, separated proteins are transferred to a membrane and probed.

The test system of series [3] is UCH-L1. As to the kind of experiment: UCH-L1 species in SH-SY5Y cells by 2D electrophoresis and Western blotting (membrane, cytosolic, total). It is filed as cell-based. How it is done:
Membrane fractionation: Cells were harvested by scraping and washed with PBS. Cell pellet was suspended in lysis buffer (50 mM Tris-HCl, 1 mM EDTA) supplemented with protease inhibitor cocktail (Sigma) and homogenized by passing through 26G needles 10 times. Suspension was clarified by spinning at 600 g for 5 minutes. Clarified suspension was ultracentrifuged at 100,000 g for 2 hours and separated into membrane and cytosol. Membrane fraction was washed with washing buffer (50 mM Tris-HCl, 1 mM EDTA 1M NaCl), and pelleted each time with bench-top centrifuge.
2D electrophoresis: For the isolation of total cellular protein, cultured SH—SY5Y cells maintained as described above were rinsed with ice-cold PBS. Cells were lysed in 1 ml dSDS buffer (50 mM Tris-HCl, pH 8.0 0.1% SDS) supplemented with protease inhibitor cocktail. Lysates were boiled for 3 min, and were treated with Dnase and Rnase as described. Lysates were precipitated with ice-cold acetone for at least 2 hours, and pellets were resuspended in 2D sample buffer (8M urea, 0.5% CHAPS, 0.2% DTT, 0.5% IPG buffer, 0.002% bromophenol blue). 2D electrophoresis was carried out according to manufacture's protocol (Amersham Life Science). 7 cm pH 4-7 strips were used. For SH—SY5Y membrane fraction, culture SH—SY5Y cells were rinsed with cold PBS and harvested with lysis buffer (50 mM Tris-HCl, pH 8.0, 1 mM ZnAc2, 250 mM sucrose). Lysate was passed through 25 G needles for several times and spun at 1000 g for 5 min. Supernatant was centrifuged at 200,000 g for 2 hours. Pellet was extensively washed with lysis buffer and extracted with cold acetone. Pellet was resuspended in 2D sample buffer.
Western Blotting: Following transfer of SDS gels onto NC membrane, all membranes were blocked with 5% non-fat milk in TBST (50 mM Tris-HCl pH7.4, 150 mM NaCl, 0.1% Tween 20), and incubated with primary antibody overnight with 1% BSA in TBST, washed three times with TBST, and incubated with horseradish peroxidase-conjugated secondary antibody for 1 hour (Promega). Bound antibodies were detected using enhanced chemiluminascence (NEM). […]

Series [4] has as its system UCH-L1. As to the kind of experiment: Pulse-chase experiment, UCH-L1 turnover in SH-SY5Y cells. In kind it is cell-based. To be noted: pulse-chase experiment not shown. The source says: Treatment with FTI-277 reduced the total amount of UCH-L1 in SH—SY5Y cells and increased its rate of turnover (pulse-chase experiment not shown), in addition to reducing the amount of membrane-associated protein.

In series [5] the test system is H358. In words: Cell growth by counting living cells as a function of time, H358. It is filed as cell-based. Particulars: 100 nM FTI-277, H358 does not express UCH-L1, vs DMSO control. The protocol:
(§2) To test the effect of farnesyl transferase inhibitor in a cell culture model, H1299 and H358 (FIG. 5B) were treated with 100 nM FTI-277 or DMSO. As a comparison, H1299 was also treated with 5 μM LDN-57414 (UCH-L1 inhibitor), which we have previously shown to increase H1299 cell proliferation (Liu et al 2003). Cell growth was quantified by counting the number of living cells as a function of time. […] The initial acceleration of cell growth in H1299, thus, may be the consequence of inhibition on UCH-L1 farnesylation. This possibility may explain the minimal clinical activity of farnesyl transferase inhibitor in treating patients with NSCLC.

In series [6] the test system is H1299. In words: Cell growth by counting living cells as a function of time, H1299. It is filed as cell-based. The protocol: as §2
Series [7] has as its system α-synuclein. As to the kind of experiment: alpha-synuclein degradation assay in transfected COS-7 cells (quantitative Western blotting). In kind it is cell-based. To be noted: 35 μM lactacystin 24 hours, normalized against actin, defines the 100% reference. The source says:
Plasmids: C220S cDNA was generated by PCR site-specific mutagenesis. For the PCR, the 5′ primer is uchforw ([…]) (SEQ ID NO: 5), and 3′ primer is uchc220s ([…] TGCTGAGAGC) (SEQ ID NO: 6). Wt UCH-L1 served as the template. The PCR fragment was inserted into pcDNA vector. For S18YC220S mutant, S18Y UCH-L1 served as the template in PCR. For the FLAG tagged UCH-L1, the 5′ primer is FLAGuchforw ([…] GCAGCTCAAGCCGATGGAG) (SEQ ID NO: 7), and the 3′ primer is uchrev ([…]) (SEQ ID NO: 8). Wt UCH-L1 or C220S served as the template. PCR fragment was purified and inserted into pcDNA vector. For the FLAG tagged UCH-L3, the 5′ primer is L3HindIII ([…] CTG) (SEQ ID NO: 9), the 3′primer is L3XhoISAA (ATCCTCGAGCTATGCT GCAGAAAGAGCAATCGCA) (SEQ ID NO: 10). For the UCH-L3 CKAA variant, the 5′ primer is L3 HindIII and the 3′ primer is L3XhoICKAA (ATCCTCGAGCTA […]) (SEQ ID NO: 11). α-synuclein degradation assay: Liphitamine 2000 was used to transfect COS-7 cells according to the Invitrogen protocol. Transfected cells were cultured at 37° C. for 48 hours before being treated with 35 μM lactacystin or DMSO. After 24 hours of incubation, the cells were lysed with Tris buffer (50 mM Tris, 2% SDS, 0.1% NP-40), and subjected to SDS-PAGE, followed by quantitative Western blotting. […]

Series [8] deals with the molecule itself. As to the kind of experiment: self-oligomerisation of purified protein, method not described.
Setting [9] is: compared to cells treated with DMSO.

“Also recorded” adds a separate entry of the source.

`COC(=O)[C@H](CCSC)NC(=O)c1ccc(NC[C@@H](N)CS)cc1-c1ccccc1` [FTI-277]: the “alpha-synuclein toxicity (loss of cells / viability)” value in series [1] is reported as “significantly decreased loss of cells; also recorded: rescued; also recorded: protects”. For the same molecule, the amount of alpha-synuclein entry in series [2] is “reduced; also recorded: reducing”. The “total amount of UCH-L1” value in series [3] is “reduced”. For the same molecule, in series [3] (setting [9]), the “amount of cytosolic UCH-L1” value is “without affecting” and the “amount of membrane bound UCH-L1” value was “significant decrease; also recorded: decreased; also recorded: reducing”. Also, the “UCH-L1 rate of turnover” value in series [4] is on record as “increased”. Further, the “initial cell growth in H358” value in series [5] is recorded as “induced initial toxicity”. Moreover, the “initial cell growth in H1299” value in series [6] (100 nM FTI-277, vs DMSO control) is given as “promoted initial cell growth”. Moreover, the “H1299 cell growth after 24 hours of compound treatment” value in series [6] (100 nM FTI-277 or 5 μM LDN-57414) is “began to show toxicity”.

For `CC(=O)N[C@@H](CSC(=O)[C@]1([C@@H](O)C(C)C)NC(=O)[C@H](C)[C@@H]1O)C(=O)O` [lactacysteine], the accumulation of alpha-synuclein in series [7] worked out at 100%.

B1: UCH-L1 C220S mutant (S18 background), expressed in E. coli and purified (enzyme, UniProt P09936 1-223, looked up)
chain: MQLKPMEINPEMLNKVLSRLGVAGQWRFVDVLGLEEESLGSVPAPACALLLLFPLTAQHENFRKKQIEELKGQEVSPKVYFMKQTIGNSCGTIGLIHAVANNQDKLGFEDGSVLKQFLSETEKMSPEDRAKCFEKNEAIQAAHDAVAQEGQCRVDDKVNFHFILFNNVDGHLYELDGRMPFPVNHGASSEDTLLKDAAKVCREFTEREQGEVRFSAVALSKAA
notes: also called C220S variant
In the case of B1, the binding result in series [8] is recorded as “binds”.
